The values below come from paper PMC5564600 (Oncotarget, 2017).

What all share (test): biochemical
What all share (type): binding

Assay [1] deals with T1, panel of 442 kinases (Homo sapiens, UniProt O14965).
T1 construct: purchased Ambit Biosciences (scanMAXX KINOMEscan)
T1 sequence (O14965 1-403): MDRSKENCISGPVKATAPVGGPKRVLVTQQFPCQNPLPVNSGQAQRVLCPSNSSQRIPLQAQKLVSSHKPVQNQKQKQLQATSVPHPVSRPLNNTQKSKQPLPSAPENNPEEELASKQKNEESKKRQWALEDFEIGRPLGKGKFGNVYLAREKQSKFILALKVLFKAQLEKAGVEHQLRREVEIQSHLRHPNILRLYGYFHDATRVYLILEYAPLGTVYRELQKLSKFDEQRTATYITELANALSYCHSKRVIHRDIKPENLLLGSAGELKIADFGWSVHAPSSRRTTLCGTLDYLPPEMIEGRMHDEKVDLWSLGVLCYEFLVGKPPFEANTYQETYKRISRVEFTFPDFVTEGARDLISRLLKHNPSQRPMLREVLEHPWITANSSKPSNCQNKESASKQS
Particulars: AURKA; for remaining activity at 1 µM: read-out: % of control at 1 µM.

Assay [2] concerns the target T2, panel of 442 kinases (Homo sapiens, UniProt Q8TDC3).
T2 construct: purchased Ambit Biosciences (scanMAXX KINOMEscan)
T2 sequence (Q8TDC3 1-778): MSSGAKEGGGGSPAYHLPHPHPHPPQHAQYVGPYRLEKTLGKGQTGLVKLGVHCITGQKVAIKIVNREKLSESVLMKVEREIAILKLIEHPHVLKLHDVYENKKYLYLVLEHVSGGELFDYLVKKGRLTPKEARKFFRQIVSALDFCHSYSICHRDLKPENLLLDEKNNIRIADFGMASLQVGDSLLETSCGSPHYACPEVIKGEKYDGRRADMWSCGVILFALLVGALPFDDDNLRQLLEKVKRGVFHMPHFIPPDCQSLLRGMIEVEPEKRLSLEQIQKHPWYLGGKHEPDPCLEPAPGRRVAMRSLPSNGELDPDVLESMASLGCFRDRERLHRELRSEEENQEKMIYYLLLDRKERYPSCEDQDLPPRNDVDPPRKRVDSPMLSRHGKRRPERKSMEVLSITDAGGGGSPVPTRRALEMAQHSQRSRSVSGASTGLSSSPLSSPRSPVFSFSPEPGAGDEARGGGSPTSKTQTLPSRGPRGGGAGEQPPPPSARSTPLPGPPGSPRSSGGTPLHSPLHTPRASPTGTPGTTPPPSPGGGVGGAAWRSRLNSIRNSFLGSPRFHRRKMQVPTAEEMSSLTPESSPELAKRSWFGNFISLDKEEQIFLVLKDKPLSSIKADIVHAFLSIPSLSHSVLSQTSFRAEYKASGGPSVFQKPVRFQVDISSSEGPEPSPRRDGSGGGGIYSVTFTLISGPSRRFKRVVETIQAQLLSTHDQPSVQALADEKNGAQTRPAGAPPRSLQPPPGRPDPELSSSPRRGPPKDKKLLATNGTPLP
Conditions: BRSK1; for remaining activity at 1 µM: read-out: % of control at 1 µM.

Assay [3] has as its target T3, panel of 442 kinases (Homo sapiens, UniProt P54760).
T3 construct: purchased Ambit Biosciences (scanMAXX KINOMEscan)
T3 sequence (P54760 16-987): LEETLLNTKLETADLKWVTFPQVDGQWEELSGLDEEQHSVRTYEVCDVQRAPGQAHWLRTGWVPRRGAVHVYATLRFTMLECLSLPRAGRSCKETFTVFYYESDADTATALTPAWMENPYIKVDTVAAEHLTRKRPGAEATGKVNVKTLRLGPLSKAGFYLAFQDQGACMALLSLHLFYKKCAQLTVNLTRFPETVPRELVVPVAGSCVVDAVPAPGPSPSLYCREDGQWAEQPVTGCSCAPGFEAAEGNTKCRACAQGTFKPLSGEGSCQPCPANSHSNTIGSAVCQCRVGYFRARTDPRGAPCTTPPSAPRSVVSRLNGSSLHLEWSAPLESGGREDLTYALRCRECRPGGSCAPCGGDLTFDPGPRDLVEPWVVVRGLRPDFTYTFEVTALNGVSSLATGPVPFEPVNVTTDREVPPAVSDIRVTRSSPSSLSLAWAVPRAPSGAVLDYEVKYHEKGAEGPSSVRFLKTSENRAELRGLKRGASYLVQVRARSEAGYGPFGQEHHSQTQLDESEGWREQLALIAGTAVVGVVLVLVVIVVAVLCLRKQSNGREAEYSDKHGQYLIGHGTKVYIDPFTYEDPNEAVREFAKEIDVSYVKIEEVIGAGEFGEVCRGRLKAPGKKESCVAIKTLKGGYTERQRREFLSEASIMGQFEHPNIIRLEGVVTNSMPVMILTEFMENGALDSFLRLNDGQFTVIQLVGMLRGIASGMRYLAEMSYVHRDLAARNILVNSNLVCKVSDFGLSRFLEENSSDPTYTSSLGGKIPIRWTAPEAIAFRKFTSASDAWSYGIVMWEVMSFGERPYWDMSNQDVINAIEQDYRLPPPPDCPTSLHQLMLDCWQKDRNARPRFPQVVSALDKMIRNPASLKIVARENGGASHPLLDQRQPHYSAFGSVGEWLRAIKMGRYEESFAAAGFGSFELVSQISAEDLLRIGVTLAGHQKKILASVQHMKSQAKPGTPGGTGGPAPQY
Particulars: EPHB4; for remaining activity at 1 µM: read-out: % of control at 1 µM.

Setting [4] is: 10 µM, read-out: % of control at 10 µM.

As for `COc1ncc(-c2ccc3nccc(-c4ccnnc4)c3c2)cc1NS(=O)(=O)c1ccc(F)cc1F` [Omipalisib], the remaining activity at 1 µM in assay [1], in assay [2] and in assay [3] was 100% each time.
For `Cn1c(=O)n(-c2ccc(C(C)(C)C#N)cc2)c2c3cc(-c4cnc5ccccc5c4)ccc3ncc21` [Dactolisib, 2-methyl-2-[4-(3-methyl-2-oxo-8-quinolin-3-yl-2,3-dihydroimidazo[4,5-c]quinolin-1-yl)-phenyl] propionitrile], the remaining activity at 1 µM turned out to be 100% in assay [1], 83% in assay [2] and 97% in assay [3].
Turning to `Nc1cc(C(F)(F)F)c(-c2cc(N3CCOCC3)nc(N3CCOCC3)n2)cn1` [Buparlisib], the remaining activity at 1 µM in assay [1], in assay [2] and in assay [3] was 100% in each case. Besides, the values for the remaining activity at 10 µM in assay [1] (setting [4]), in assay [2] (setting [4]) and in assay [3] (setting [4]) were 91%, 100% and 100%, respectively.
`FC(F)c1nc2ccccc2n1-c1nc(N2CCOCC2)nc(N2CCOCC2)n1` [ZSTK474, 2-(difluoromethyl)-1-[4,6-di(4-morpholinyl)-1,3,5-triazin-2-yl]-1H-benzimidazole]: the remaining activity at 1 µM was found to be 100% in assay [1], 98% in assay [2] and 92% in assay [3].
